Test results from US20080275134A1, “Methods for Treatment of Retinal Degenerative Disease” (University of Washington, priority 2005, published 2008).

What was measured:
[1] = HPLC and mass spectrometry analysis of liver samples of treated mice; assay type: in vivo, mouse
From the text: Next, the RA oxidation pathway was investigated. […] In addition to secretion, Ret-NH2 might be degraded first by deamination to all-trans-retinol/retinal, which was seen to increase in Ret-NH2 treated cells. […] These observations explain the long-lasting effect of RetNH2, as the amide is stored and hydrolyzed back to the free amine.

LRAT = molecular target: T1, LRAT (Bos taurus, UniProt Q9BGL2); experiment: LRAT reaction: formation of all-trans-retinyl esters by RPE microsomes; assay type: biochemical, bovine; settings: all-trans-retinol substrate
T1 construct: Purified RPE microsomes were the source of the enzymes; from tissue; host or cells: bovine retinal pigment epithelium microsomes
T1 sequence (Q9BGL2 1-230): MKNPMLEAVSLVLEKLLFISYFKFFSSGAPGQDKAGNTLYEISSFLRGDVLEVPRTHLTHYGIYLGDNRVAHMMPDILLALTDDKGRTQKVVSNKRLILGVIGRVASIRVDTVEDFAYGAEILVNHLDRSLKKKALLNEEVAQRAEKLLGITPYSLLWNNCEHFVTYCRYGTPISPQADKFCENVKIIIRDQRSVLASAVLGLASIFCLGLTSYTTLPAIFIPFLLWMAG
Method: To test if 11-cis-retinylamine (11-cis Ret-NH2) affects isomerization and esterification, an in vitro assay was employed. In this assay both of the all-trans-retinyl esters formed in the reaction catalyzed by LRAT and 11-cis-retinol production by isomerase were measured (6). Purified RPE microsomes were the source of the enzymes, and all-trans-retinol was the substrate. […] Inhibition of isomerization by Ret-NH2 is not due to binding of CRALBP or competition with 11-cis-retinol for binding to CRALBP. […] An increased concentration of all-trans-retinol lowered the level of inhibition, as illustrated in FIG. 2B. […] Dixon's and Lineweaver-Burk plots in the standard assay conditions yielded Ki=0.1 μM for Ret-NH2 when all-trans-retinol (KM=0.3 μM) was assumed to be a substrate. […] This estimated value reflects the very potent nature of the inhibition by 11-cis-Ret-NH2.
Materials—Fresh bovine eyes were obtained from a local slaughterhouse (Schenk Packing Co., Inc., Stanwood, Wash.). Preparation of bovine RPE microsomes was performed according to previously described methods (Stecher et al., J Biol Chem 274:8577-85, 1999). […]
Reaction conditions for isomerase and LRAT reaction—The isomerase reaction was performed essentially as described previously (Stecher et al., J Biol Chem 274:8577-85, 1999). […] The average values were used and the standard deviations were calculated.

[2] = tested on: retinyl acetate hydrolase; experiment: direct assay of retinyl acetate hydrolase present in the RPE; assay type: biochemical; settings: direct assays
[3] = observation of mice for systemic toxicity after oral gavage; assay type: in vivo; settings: single doses 0.5 to 100 mg/kg

Row | SMILES | metabolite found in liver [1] | formation of all-trans-retinyl esters (LRAT activity) (LRAT) | inhibition of retinyl acetate hydrolase [2] | symptoms of systemic toxicity such as weight loss or gastrointestinal disorder [3]
1 | CC1=C(/C=C/C(C)=C/C=C/C(C)=C/CN)C(C)(C)CCC1 [Ret-NH2, Retinylamine] | amidated to N-retinylpalmitamide | does not inhibit | did not inhibited | 
2 | CC1=C(/C=C/C(C)=C/C=C/C(C)=C/CN)C(C)(C)CCC1 [all-trans-Ret-NH2, all-trans-retinylamine] |  |  |  | did not exhibit symptoms of systemic toxicity
